Here are results for two compounds from ChEMBL document CHEMBL5705903, “A DNA Hypomethylation Signature Predicts Antitumor Activity of LSD1 Inhibitors in SCLC” (Cancer Cell, 2015).

The source made the active and inactive calls. The calls are words filed in the database; no cut-off is given here.

Data set [1] is described as follows: Tmax in mouse at 5.5 mg/kg, ip by HPLC/MS/MS analysis. In kind it is ADME, organism-based. The settings on record: in vivo.
Data set [2] is described as follows: AUC (0 to t) in mouse at 5.5 mg/kg, ip by HPLC/MS/MS analysis. In kind it is ADME, organism-based. The settings on record: in vivo.
The nature of data set [3]: Effect on cleaved PARP level in human NCI-H1417 cells assessed as fold change at 10 nM measured after 14 days by Western blot analysis (reference value: 1.00). The settings on record: time 14 day. The class given is functional.
Data set [4] relates to NCI-H526. Put plainly: In vivo inhibition of LSD1 in human NCI-H526 cells xenografted in nude mouse assessed as change in FEZ1 gene expression measured after 24 hrs post single administration by qRT-PCR analysis. In kind it is functional, organism-based. The settings on record: dose 0.06-135 mg/kg.
A short description of data set [5]: Effect on cleaved PARP level in human NCI-H526 cells assessed as fold change at 10 nM measured after 10 days by Western blot analysis (reference value: 1.00). The class given is functional. The settings on record: time 10 day. (In general: A western blot detects proteins with antibodies after separation by electrophoresis.)
Data set [6] can be described thus: Effect on cleaved PARP level in human NCI-H1417 cells assessed as relative expression at 100 nM measured after 14 days by Western blot analysis (reference value: 0.38). The class given is functional. The settings on record: time 14 day.
Data set [7] is described as follows: Effect on cleaved PARP level in human NCI-H69 cells assessed as relative expression at 100 nM measured after 14 days by Western blot analysis (reference value: 0.03). In kind it is functional. The settings on record: time 14 day.
Data set [8] can be described thus: Effect on cleaved PARP level in human NCI-H2171 cells assessed as fold change at 1000 nM measured after 14 days by Western blot analysis (reference value: 1.00). In kind it is functional. The settings on record: time 14 day.
A short description of data set [9]: Effect on cleaved PARP level in human COLO-668 cells assessed as fold change at 100 nM measured after 14 days by Western blot analysis (reference value: 1.00). In kind it is functional. The settings on record: time 14 day.
Data set [10] deals with NCI-H526. Put plainly: In vivo inhibition of LSD1 in human NCI-H526 cells xenografted in nude mouse assessed as change in LIX1L gene expression measured after 24 hrs post single administration by qRT-PCR analysis. In kind it is functional, organism-based. The settings on record: dose 0.06-135 mg/kg. A general note: A xenograft is tissue or cells of one species grown in another, often human tumour cells in immunodeficient mice.

Data set [11] is described as follows: Antitumor activity against human PDX L44 cells xenografted in mouse assessed as tumor growth inhibition at 1.5 mg/kg administered daily measured for 30 days relative to control. The settings on record: PDX LX44, 720 h, time 30 day, read-out: TGI. The class given is functional.
Data set [12] in a line: Effect on cleaved PARP level in human NCI-H2171 cells assessed as fold change at 10 nM measured after 14 days by Western blot analysis (reference value: 1.00). The settings on record: time 14 day. In kind it is functional.
The test system of data set [13] is NCI-H526. Nature of the data set: In vivo inhibition of LSD1 in human NCI-H526 cells xenografted in nude mouse assessed as change in FEZ1 gene expression administrated daily for 5 days by qRT-PCR analysis. The settings on record: dose 0.02-135 mg/kg, time 5.0 day. The class given is functional, organism-based.
The nature of data set [14]: Effect on cleaved PARP level in human NCI-H69 cells assessed as fold change at 100 nM measured after 14 days by Western blot analysis (reference value: 1.00). In kind it is functional. The settings on record: time 14 day.
Data set [15] is described as follows: Effect on cleaved PARP level in human NCI-H146 cells assessed as fold change at 100 nM measured after 10 days by Western blot analysis (reference value: 1.00). The class given is functional. The settings on record: time 10 day.
A further data set concerns COLO-668. Put plainly: Effect on NCAM gene expression in human COLO-668 cells at 1 uM measured after 4 days by qRT-PCR analysis. The settings on record: time 4.0 day. The class given is functional, cell-based. For orientation: Real-time PCR tracks product formation cycle by cycle.
A short description of data set [16]: Toxicity in dog assessed as myelofibrosis measured for 28 days. The settings on record: in vivo, 672 h, time 28 day. Also on record: species or system Canis lupus familiaris.
The subject of data set [17] is NCI-H510A. Put plainly: Effect on NSE gene expression in human NCI-H510A cells at 1 uM measured after 4 to 7 days by qRT-PCR analysis. The class given is functional, cell-based. The settings on record: time 4-7 day.
The test system of the next data set is NCI-H1417. Nature of the data set: Antitumor activity against human NCI-H1417 cells xenografted in nude mouse assessed as mean tumor volume at 1.5 mg/kg, po administered daily measured twice weekly (reference value: 2262 +/- 299 mm3). In kind it is functional.
A short description of data set [18]: Effect on cleaved PARP level in human NCI-H526 cells assessed as fold change at 100 nM measured after 10 days by Western blot analysis (reference value: 1.00). In kind it is functional. The settings on record: time 10 day.
A further data set concerns the target D-amino-acid oxidase (Homo sapiens, UniProt P14920).
Data set [19] can be described thus: Effect on cleaved PARP level in human NCI-H526 cells assessed as fold change at 100 nM measured after 14 days by Western blot analysis (reference value: 1.00). The class given is functional. The settings on record: time 14 day.
Data set [20] concerns NCI-H510A. Nature of the data set: Effect on NCAM gene expression in human NCI-H510A cells at 1 uM measured after 4 days by qRT-PCR analysis. The class given is functional, cell-based. The settings on record: time 4.0 day.
Data set [21] can be described thus: Effect on cleaved PARP level in human NCI-H2171 cells assessed as relative expression at 1000 nM measured after 14 days by Western blot analysis (reference value: 0.01). The class given is functional. The settings on record: time 14 day.
Data set [22] is described as follows: Effect on cleaved PARP level in human NCI-H524 cells assessed as relative expression at 100 nM measured after 10 days by Western blot analysis (reference value: 0.95). In kind it is functional. The settings on record: time 10 day.
Data set [23] is described as follows: Effect on cleaved PARP level in human NCI-H2171 cells assessed as relative expression at 100 nM measured after 14 days by Western blot analysis (reference value: 0.01). In kind it is functional. The settings on record: time 14 day.
A short description of data set [24]: Effect on cleaved PARP level in human NCI-H889 cells assessed as relative expression at 100 nM measured after 10 days by Western blot analysis (reference value: 0.33). The class given is functional. The settings on record: time 10 day.
Data set [25] in a line: Effect on cleaved PARP level in human NCI-H2171 cells assessed as relative expression at 10 nM measured after 10 days by Western blot analysis (reference value: 0.02). The class given is functional. The settings on record: time 10 day.
The next data set has as its system NCI-H146. Nature of the data set: Effect on SYP gene expression in human NCI-H146 cells at 1 uM measured after 4 days by qRT-PCR analysis. The settings on record: time 4.0 day. In kind it is functional, cell-based.
The subject of data set [26] is NCI-H510A. Nature of the data set: Antitumor activity against human NCI-H510A cells xenografted in nude mouse assessed as mean tumor volume at 1.5 mg/kg, po administered daily measured twice weekly (reference value: 1028 +/- 182 mm3). In kind it is functional.
A short description of data set [27]: Effect on cleaved PARP level in human NCI-H526 cells assessed as relative expression at 10 nM measured after 14 days by Western blot analysis (reference value: 0.66). The class given is functional. The settings on record: time 14 day.
Data set [28] can be described thus: Effect on cleaved PARP level in human NCI-H510 cells assessed as fold change at 1000 nM measured after 14 days by Western blot analysis (reference value: 1.00). In kind it is functional, NCI-H510A. The settings on record: time 14 day.
The nature of data set [29]: Effect on cleaved PARP level in human NCI-H1417 cells assessed as relative expression at 100 nM measured after 7 days by Western blot analysis (reference value: 0.10). In kind it is functional. The settings on record: time 7 day.
A short description of data set [30]: Effect on cleaved PARP level in human NCI-H1417 cells assessed as relative expression at 1000 nM measured after 7 days by Western blot analysis (reference value: 0.10). In kind it is functional. The settings on record: time 7 day.
Data set [31] is described as follows: Effect on cleaved PARP level in human NCI-H510 cells assessed as fold change at 100 nM measured after 10 days by Western blot analysis (reference value: 1.00). The class given is functional, NCI-H510A. The settings on record: time 10 day.
Data set [32] is described as follows: Effect on cleaved PARP level in human COLO-668 cells assessed as relative expression at 1000 nM measured after 7 days by Western blot analysis (reference value: […]). In kind it is functional. The settings on record: time 7 day.

D-amino-acid oxidase, sequence (P14920 whole entry, looked up): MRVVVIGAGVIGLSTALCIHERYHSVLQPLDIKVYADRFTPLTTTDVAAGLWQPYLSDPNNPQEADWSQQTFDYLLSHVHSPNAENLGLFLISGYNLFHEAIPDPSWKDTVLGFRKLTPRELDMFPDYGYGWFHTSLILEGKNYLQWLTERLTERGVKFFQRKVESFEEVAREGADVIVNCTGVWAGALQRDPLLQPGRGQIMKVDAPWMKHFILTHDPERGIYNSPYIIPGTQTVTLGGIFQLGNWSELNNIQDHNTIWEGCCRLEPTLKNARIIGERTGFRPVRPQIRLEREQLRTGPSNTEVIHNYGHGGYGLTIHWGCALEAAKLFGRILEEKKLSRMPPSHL
Description for D-amino-acid oxidase: Binding affinity to D-amino acid oxidase (unknown origin) assessed as inactivation constant

What is called Tmax is the time at which the peak concentration occurs. The term AUC(0-t) denotes exposure summed from dosing to a finite time, without extrapolation to infinity. The low end stands for less exposure, the high end for more exposure. On to `c1ccc([C@@H]2C[C@H]2NC2CCNCC2)cc1`, for which the Tmax in data set [1] is 18 min. In addition, the AUC(0-t) in [2] was found to be 871 ng·h/mL.

For the compound `O=C(O)c1ccc(CN2CCC(CN[C@@H]3C[C@H]3c3ccccc3)CC2)cc1` [GSK2879552], the “fold change (FC)” value came to 0.82 in data set [3]; 0.57 in data set [5]; 2.4 in data set [8]; 0.25 in data set [9]; 0.9 in data set [12]; 5.03 in [14]. For the same compound, the “fold change (FC)” value was determined as 0.94 in [15]; 1.16 in data set [18]; 1.41 in data set [19]; 2.61 in data set [28]; 9.72 in data set [31]. Also, the inhibition result with NCI-H526 [4], with NCI-H526 [10] and with NCI-H526 [13] was “Dose-Dependent Effect” throughout. The Activity in data set [6] is given as 0.32; in [7], 0.16; in data set [16], “Toxic”; in the data set with NCI-H1417, 546 mm3; in [21], 0.02; in data set [22], 0.67. For the same compound, the Activity in [23] is reported as 0.02; in data set [24] it was 0.74; in [25] it was 0.02; in the data set with NCI-H510A [26], 705 mm3; in data set [27], 0.48; in [29], 0.29. Moreover, the values for the Activity in [30] and in [32] were 0.36 and 1.36, respectively. The inhibition in vivo at 1.5 mg/kg in data set [11] came out at 69%. Further, the result with COLO-668, in the data set on NCI-H510A [17], in the data set with NCI-H510A [20] and in the data set on NCI-H146 was inactive. At D-amino-acid oxidase, this compound returned a Kinact of 0.12 min⁻¹.
